Test systems include BT-549; CCRF-CEM; EKVX; HCT-15; HL-60; HOP-62; IGROV-1; MDA-MB-435; Malme-3M; NCI-H460; NCI/ADR-RES; OVCAR-4; RPMI-8226; SF-539; SK-MEL-5; SK-OV-3; SN12C; SNB-75; U-251; OVCAR-5.
Holding throughout (test): growth of human tumour cells (NCI), 48 h

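Protocol summary: plate cells (96-well), add compound at 5 concentrations, incubate 48 h, interpolate endpoints linearly. Abbreviation: GI50, concentration required for 50% inhibition of growth.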 Active and inactive are the calls of the source. No stated cut-off is given here; in the data, active = GI50 up to about 1.1 µM and inactive = higher.

Regarding `COc1cc(C2c3cc4c(cc3OC(NNC(N)=S)C2C)OCO4)cc(OC)c1OC` (stereo not drawn), the GI50 with BT-549 is 0.804 µM (active); in the assay on CCRF-CEM, 0.244 µM (active); in the assay on EKVX, 22.5 µM (inactive); in the assay with HCT-15, 0.451 µM; in the assay on HL-60, 0.165 µM (active); in the assay on HOP-62, 0.344 µM (active). Also, the GI50 with IGROV-1 is 0.441 µM (active); with MDA-MB-435, 0.0425 µM (active); in the assay with Malme-3M it was 0.53 µM (active); in the assay with NCI-H460 it was 0.376 µM (active); with NCI/ADR-RES it was 0.585 µM (active); in the assay on OVCAR-4, 41.3 µM (inactive). Moreover, the GI50 in the assay with RPMI-8226 is 0.29 µM (active); in the assay with SF-539, 0.199 µM (active); in the assay with SK-MEL-5, 0.269 µM (active); in the assay on SK-OV-3, 0.53 µM (active); with SN12C it was 1.03 µM (active); in the assay with SNB-75, 71.3 µM (inactive). In the assay on U-251, the GI50 is 0.362 µM (active).

For the molecule `CC1NC(/C(=C/c2ccccc2O)NC(=O)c2ccccc2)OC1=O` (stereo not drawn), the GI50 with BT-549 is > 50 µM (inactive); in the assay with CCRF-CEM, > 50 µM (inactive); in the assay with EKVX, 30.4 µM (inactive); in the assay with HCT-15, 34.1 µM; in the assay on HL-60, 23.3 µM (inactive); in the assay with HOP-62 it was 16.1 µM (inactive). Moreover, the GI50 in the assay with IGROV-1 was 14 µM (inactive); with MDA-MB-435 it was 28.8 µM (inactive); in the assay on Malme-3M it was 9.31 µM (inactive); in the assay with NCI/ADR-RES it was > 50 µM (inactive); with OVCAR-4, > 50 µM (inactive); in the assay with OVCAR-5, > 50 µM (inactive). The GI50 was > 50 µM (inactive) in the assay with RPMI-8226; 11.5 µM (inactive) in the assay on SF-539; 39.7 µM (inactive) with SK-MEL-5; 48.2 µM (inactive) in the assay with SK-OV-3; > 50 µM (inactive) in the assay with SN12C; 13.9 µM (inactive) with SNB-75. Moreover, in the assay with U-251, the GI50 is > 50 µM (inactive).

As for `CCOc1c2ccsc2c(OCC)c2ccsc12`, the GI50 is > 28.8 µM (inactive) with BT-549; 3.77 µM (inactive) with CCRF-CEM; > 29.6 µM (inactive) with EKVX; 4.06 µM with HCT-15; 2.07 µM (inactive) with HL-60; 4.78 µM (inactive) with HOP-62. Also, the GI50 in the assay on IGROV-1 was 5.06 µM (inactive); with MDA-MB-435, 0.766 µM (active); with Malme-3M, 3.73 µM (inactive); in the assay with NCI-H460, 3.58 µM (inactive); in the assay with NCI/ADR-RES it was 7.05 µM (inactive); in the assay with OVCAR-4 it was > 100 µM (inactive). For the same molecule, the GI50 is 11.8 µM (inactive) in the assay with OVCAR-5; 4.06 µM (inactive) with RPMI-8226; 2.41 µM (inactive) in the assay with SF-539; 3.34 µM (inactive) in the assay on SK-MEL-5; 3.92 µM (inactive) with SK-OV-3; 20.6 µM (inactive) in the assay on SN12C. For the same molecule, the GI50 with SNB-75 is 3.31 µM (inactive); with U-251, 3.72 µM (inactive).

`COC(=O)/C=C1\C(=O)N(C(C)=O)c2ccccc21`: the GI50 was 3.47 µM (inactive) in the assay with BT-549; 2.97 µM (inactive) in the assay on CCRF-CEM; 12.3 µM (inactive) in the assay with EKVX; 6.19 µM with HCT-15; 2.03 µM (inactive) in the assay on HL-60; 12.9 µM (inactive) with HOP-62. For the same molecule, the GI50 with IGROV-1 was 7.87 µM (inactive); in the assay on MDA-MB-435, 11.3 µM (inactive); in the assay on Malme-3M, 13.5 µM (inactive); with NCI-H460, 10.5 µM (inactive); with NCI/ADR-RES, 13.9 µM (inactive); in the assay on OVCAR-4, 5.25 µM (inactive). The GI50 in the assay with OVCAR-5 was 22.1 µM (inactive); with RPMI-8226, 11.9 µM (inactive); in the assay on SF-539, 4.79 µM (inactive); in the assay on SK-MEL-5 it was 8.73 µM (inactive); in the assay on SK-OV-3, 14.8 µM (inactive); in the assay on SN12C, 6.22 µM (inactive). Also, the GI50 was 12.5 µM (inactive) with SNB-75 and 12.8 µM (inactive) in the assay with U-251.

In the case of `CCN(c1cccc(NC(=S)Nc2ccccc2N(CC)c2cc(-c3ccccc3)no2)c1)c1cc(-c2ccccc2)no1`, the GI50 in the assay on BT-549 is > 100 µM (inactive); with CCRF-CEM it was > 100 µM (inactive); with EKVX, > 100 µM (inactive); in the assay on HCT-15 it was > 100 µM; in the assay with HL-60, > 100 µM (inactive); with HOP-62 it was > 100 µM (inactive). In addition, the GI50 in the assay with IGROV-1, in the assay with MDA-MB-435, in the assay on Malme-3M, in the assay with NCI-H460, with NCI/ADR-RES and in the assay on OVCAR-4 was > 100 µM (inactive) in each case. The GI50 in the assay on OVCAR-5, in the assay on RPMI-8226, with SF-539, with SK-MEL-5, in the assay with SK-OV-3 and in the assay with SN12C was > 100 µM (inactive) in each case. Moreover, the GI50 with SNB-75 and with U-251 was > 100 µM (inactive) each time.

`O=[N+]([O-])c1cccc2nc3ccccc3c(NCCCCNc3c4ccccc4nc4cccc([N+](=O)[O-])c34)c12`: the GI50 with BT-549 is 0.242 µM (active); in the assay with CCRF-CEM, < 0.016 µM (active); with EKVX, 0.104 µM (active); in the assay on HCT-15, 0.0204 µM; in the assay on HL-60 it was < 0.01 µM (active); with HOP-62, 0.042 µM (active). Moreover, the GI50 with IGROV-1 is 0.118 µM (active); with MDA-MB-435 it was 0.0489 µM (active); with Malme-3M, 0.0766 µM (active); in the assay with NCI-H460 it was 0.0143 µM (active); in the assay with NCI/ADR-RES, 0.248 µM (active); with OVCAR-4, 0.0948 µM (active). Further, the GI50 is 0.164 µM (active) in the assay with OVCAR-5; 0.0301 µM (active) with RPMI-8226; 0.0244 µM (active) in the assay on SF-539; 0.0365 µM (active) in the assay with SK-MEL-5; 0.293 µM (active) with SK-OV-3; 0.0414 µM (active) in the assay with SN12C. In addition, the GI50 with SNB-75 is 0.0859 µM (active); in the assay with U-251, 0.0261 µM (active).

`FC(F)(F)C1(C(F)(F)F)O[Si]2(OC(C(F)(F)F)(C(F)(F)F)c3ccccc32)c2ccccc21`: the GI50 in the assay on BT-549 is 14.5 µM (inactive); in the assay on CCRF-CEM, 10.5 µM (inactive); in the assay with EKVX, 15 µM (inactive); in the assay with HCT-15, 17 µM; in the assay on HL-60 it was 13.6 µM (inactive); in the assay with HOP-62, 8.67 µM (inactive). For the same molecule, the GI50 is 16.3 µM (inactive) with IGROV-1; 11.3 µM (inactive) in the assay with MDA-MB-435; 9.46 µM (inactive) in the assay on Malme-3M; 5.98 µM (inactive) in the assay with NCI-H460; 6.58 µM (inactive) with NCI/ADR-RES; 11.4 µM (inactive) in the assay on OVCAR-4. Also, the GI50 with OVCAR-5 is 14.5 µM (inactive); in the assay with RPMI-8226, 17.2 µM (inactive); in the assay on SF-539, 10.2 µM (inactive); with SK-MEL-5 it was 15.5 µM (inactive); in the assay with SK-OV-3, 15.8 µM (inactive); with SN12C, 9.02 µM (inactive). The GI50 was 14.6 µM (inactive) with SNB-75 and 3.95 µM (inactive) in the assay on U-251.

For the origin of these results see ChEMBL document CHEMBL1201862, “PubChem BioAssay data set” (2004).
